Data reported in patent US20240285540A1, “FUNCTIONAL THERAPEUTIC INDEX IN THE TREATMENT OF PERIPHERAL IMMUNE DYSFUNCTION” (priority 2023, published 2024).
Marks after values point to notes of the source that are not given here. Primed or numbered codes have the meaning given here. Ends that are not written are not given here. bexarotene = RXR ligand attached at the C-terminus; adapalene = RARβ/γ ligand, attached at C-terminus; GW7647″ = PPARα ligand, attached at C-terminus; GW4064 = FXR ligand, attached at C-terminus

Tested on: C2C12 myoblast cell line
Experiment: C2C12 myoblast differentiation assay (creatine kinase)
Format: cell-based
Conditions: 96 hours, relative to imm3SVD peptide (=100)
Protocol: C2C12 myoblast cell line (ATCC, Manassas, VA) was cultured in DMEM medium supplemented with 10% FBS and 1% penicillin/streptomycin. For differentiation, cells were cultured in the same medium, except that 10% FBS was replaced by 2% horse serum. Peptides and NR ligands were added at the indicated concentrations and cells were harvested 96 hours later for assay. Cell extracts were assayed for creatine kinase (CK) per mg protein. CK was measured using the ECPK-100 kit from BioAssay Systems (Hayward, CA). Protein was assayed using the BCA protein assay kit from Thermofisher Scientific (Waltham, MA). CK activities and p values were expressed relative to imm3SVD peptide (=100). **p<0.01; *p<00.05.

[1] = Peptide 0.66 uM, no added free ligand

Row | Compound | CK (units/mg) (Added ligand 2 uM together with imm3SVD peptide 0.66 uM) | CK (units/mg) [1]
1 | CN1c2ccccc2N=C(c2ccc(C(=O)O)cc2)c2cc3c(cc21)C(C)(C)CCC3(C)C [HX600] | 30.3 ± 16.0* % of imm3SVD peptide | 
2 | imm3bex: SDKKGFYKKKQCRPSKGRKRGFCWSVDK C-terminally liganded with bexarotene (RXR ligand) (SDKKGFYKKKQCRPSKGRKRGFCWSVDK-bexarotene; cysteine pairing not given here) |  | 121.0 ± 6.6* % of imm3SVD peptide
3 | imm3fxr: SDKKGFYKKKQCRPSKGRKRGFCWSVDK C-terminally liganded with GW4064 (FXR ligand) (SDKKGFYKKKQCRPSKGRKRGFCWSVDK-GW4064; cysteine pairing not given here) |  | 136.8 ± 19.6* % of imm3SVD peptide
4 | imm3ppa: SDKKGFYKKKQCRPSKGRKRGFCWSVDK C-terminally liganded with GW7647 (PPARα ligand) (SDKKGFYKKKQCRPSKGRKRGFCWSVDK-{GW7647″}; cysteine pairing not given here) |  | 155.9 ± 18.8** % of imm3SVD peptide
5 | imm3adp: KKGFYKKKQCRPSKGRKRGFCWSVDK C-terminally liganded with adapalene (RARß/γ ligand) (KKGFYKKKQCRPSKGRKRGFCWSVDK-adapalene; cysteine pairing not given here) |  | 185.8 ± 23.5** % of imm3SVD peptide
